# Assay results as given in US11345702B1 (Myoforte Therapeutics, Inc., priority 2020, dated 2022).
# Experiments:
# [1] = Liver microsome stability assay (RLM); format: in vitro ADME; settings: rat liver microsomes
# Protocol: (§1) A microsomal mixture (microsomes and Kphos buffer) was prepared at a concentration of 1.428 mg/mL in 2 mL tubes. To this microsomal mixture 1.6 μL (1 mM) of test compound and positive control were spiked; from this mixture, 70 μL was transferred to 96 well plate and pre-incubated at 37° C. for 5 min. After pre-incubation, the zero minute time point reaction was stopped using 100 μL of ice-cold acetonitrile containing internal standard and […] (3.33 mM in Kphos buffer) was added. The 45 minute time point reaction was initiated by addition of 30 μL of NADPH (3.33 mM in Kphos buffer) and incubated at 37° C. for 15 and 45 min. Reactions without NADPH and buffer controls (minus NADPH) at 0, 15, and 45 minutes were also incubated to rule out non-NADPH metabolism or chemical instability in the incubation buffer. Incubation reactions were stopped with 100 μL of ice-cold acetonitrile containing internal standard. The plates were centrifuged at 4000 RPM for 15 min and 100 μL aliquots were submitted for analysis by LC-MS/MS. (Verapamil in human liver microsomes (HLM) and rat liver microsomes (RLM) was used as positive controls. Imipramine in mouse liver microsomes (MLM) was used as a positive control.) Samples were monitored for parent compound disappearance in MRM mode (multiple reaction monitoring) using LC-MS/MS. The peak area ratios of analyte versus internal standard were used to calculate the % remaining at the end of 45 minutes in the presence of NADPH.
# 15-PGDH/HPGD = 15-PGDH/HPGD (Homo sapiens (Human), UniProt P15428); experiment: hPGDH inhibitor screening biochemical assay; settings: read-out: hPGDH: Average IC50
# Summary of the method: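 Ten-point dose-response inhibition of 15-PGDH measured by fluorescence (340/485 nm) after 10 min at room temperature with PGE2 (15 μM) and NAD+ (0.25 mM), following 10 min enzyme (10 nM)–compound pre-incubation at 37 °C. Buffer: 50 mM Tris-HCl pH 7.5, 0.01% Tween 20. Percent inhibition relative to 1% DMSO; four-parameter IC50.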
# [2] = Liver microsome stability assay (MLM); format: in vitro ADME; settings: mouse liver microsomes
# Protocol: as §1
# Chain of 15-PGDH/HPGD (P15428 whole entry): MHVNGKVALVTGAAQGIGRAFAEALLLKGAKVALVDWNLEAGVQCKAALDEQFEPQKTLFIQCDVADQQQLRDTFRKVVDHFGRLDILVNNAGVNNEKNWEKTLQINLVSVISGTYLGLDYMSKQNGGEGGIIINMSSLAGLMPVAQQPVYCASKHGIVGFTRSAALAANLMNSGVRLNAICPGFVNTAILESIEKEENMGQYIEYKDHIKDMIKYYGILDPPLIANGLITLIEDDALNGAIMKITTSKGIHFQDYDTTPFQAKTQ
Structure (SMILES),RLM + NADPH (% remaining at 45 min) [1] [%],IC50 (15-PGDH/HPGD) [nM],MLM + NADPH (% remaining at 45 min) [2] [%]
O=C(c1cnc2c(c1)ncn2-c1ccc(OC(F)F)cc1)N1CCCCC1 [MF-DH-223],74,< 100,–
COc1ccc(-n2nc(Cl)c3cc(C(=O)N4CCC(F)CC4)ccc32)cc1 [MF-DH-246],46,100 to 1000,–
COc1ccc(-n2c(CCC(F)(F)F)nc3cc(C(=O)N4CCCCC4)cnc32)cc1 [MF-DH-268],60,100 to 1000,–
CCC(CC)n1cnc2cc(C(=O)N3CCC(F)CC3)cnc21 [MF-DH-201],48,≥ 1000,–
COCCc1nc2cc(C(=O)N3CCCCC3)cnc2n1-c1ccc(OC)cc1 [MF-DH-267],67,100 to 1000,–
O=C(c1cnc2c(c1)ncn2-c1ccc(F)c(F)c1)N1CCCCC1 [MF-DH-217],34,< 100,–
CCc1nc2cc(C(=O)N3CCC(F)CC3)ccc2n1-c1ccc(OC)cc1 [MF-DH-193],0,< 100,–
"CC(C)(C)NC(=O)c1ccc(-n2ccc3cc(C(=O)N4CCC(F)(F)CC4)cnc32)cn1 [MF-DH-406, N-(tert-butyl)-5-(5-(4,4-difluoropiperidine-1-carbonyl)-1H-pyrrolo[2,3-b]pyridin-1-yl)picolinamide]",–,< 100,66
"CCC(CC)NC(=O)c1cncc(-n2ccc3cc(C(=O)N4CCC(F)(F)CC4)cnc32)c1 [MF-DH-407, 5-(5-(4,4-difluoropiperidine-1-carbonyl)-1H-pyrrolo[2,3-b]pyridin-1-yl)-N-(pentan-3-yl)nicotinamide]",–,< 100,51
O=C(c1cnc2c(ccn2-c2cc(Cl)cc(C(=O)N3CCS(=O)(=O)CC3)c2)c1)N1CCC(F)(F)CC1,–,< 100,37
"CCC(CC)NC(=O)c1ccc(-n2ccc3cc(C(=O)N4CCC(F)(F)CC4)cnc32)cn1 [MF-DH-437, 5-(5-(4,4-difluoropiperidine-1-carbonyl)-1H-pyrrolo[2,3-b]pyridin-1-yl)-N-(pentan-3-yl) picolinamide]",–,< 100,25
"Cc1c(C(=O)N2CCC(F)CC2)cnc2c1ccn2-c1ccc(C#N)cc1 [MF-DH-387, 4-(5-(4-fluoropiperidine-1-carbonyl)-4-methyl-1H-pyrrolo[2,3-b]pyridin-1-yl)benzonitrile]",–,< 100,72
"O=C(Nc1ccno1)c1cncc(-n2ccc3cc(C(=O)N4CCC(F)(F)CC4)cnc32)c1 [MF-DH-459, 5-(5-(4,4-difluoropiperidine-1-carbonyl)-1H-pyrrolo[2,3-b]pyridin-1-yl)-N-(isoxazol-5-yl)nicotinamide]",–,< 100,31
CC1(C)NC(=O)N(c2ccc(-n3ccc4cc(C(=O)N5CCC(F)(F)CC5)cnc43)cn2)C1=O [MF-DH-457],–,< 100,87
O=C(NC1(C(=O)O)CC1)c1ccc(-n2ccc3cc(C(=O)N4CCC(F)(F)CC4)cnc32)cc1 [MF-DH-429],–,< 100,97
N/C(=N\O)c1ccc(-n2ccc3cc(C(=O)N4CCCCC4)cnc32)cc1 [MF-DH-399],–,< 100,6
"O=C(c1cnc2c(ccn2-c2ccc(-c3nnn[nH]3)nc2)c1)N1CCC(F)(F)CC1 [MF-DH-452, (1-(6-(1H-tetrazol-5-yl)pyridin-3-yl)-1H-pyrrolo[2,3-b]pyridin-5-yl)(4,4-difluoropiperidin-1-yl)methanone]",–,< 100,90

# Results, then the molecule that gave them:
RLM + NADPH (% remaining at 45 min) [1] [%],IC50 (15-PGDH/HPGD) [nM],MLM + NADPH (% remaining at 45 min) [2] [%],Structure (SMILES)
–,< 100,74,"Cc1nc(-c2cncc(-n3ccc4cc(C(=O)N5CCC(F)(F)CC5)cnc43)c2)no1 [MF-DH-470, (4,4-difluoropiperidin-1-yl)(1-(5-(5-methyl-1,2,4-oxadiazol-3-yl)pyridin-3-yl)-1H-pyrrolo[2,3-b]pyridin-5-yl)methanone]"
–,< 100,91,"CC(C)(O)CCc1cc2cc(C(=O)N3CCC(F)(F)CC3)cnc2n1-c1ccc(C(=O)O)cc1 [MF-DH-538, 4-(5-(4,4-difluoropiperidine-1-carbonyl)-2-(3-hydroxy-3-methylbutyl)-1H-pyrrolo[2,3-b]pyridin-1-yl)benzoic acid]"
–,< 100,47,"O=C(c1cnc2c(ccn2-c2cncc(-c3n[nH]c(C4CC4)n3)c2)c1)N1CCC(F)(F)CC1 [MF-DH-517, (1-(5-(5-cyclopropyl-1H-1,2,4-triazol-3-yl)pyridin-3-yl)-1H-pyrrolo[2,3-b]pyridin-5-yl)(4,4-difluoropiperidin-1-yl)methanone]"
–,< 100,103,NC(=O)c1cncc(-n2cc(Cl)c3cc(C(=O)N4CCC(F)(F)CC4)cnc32)c1 [MF-DH-482]
–,100 to 1000,90,"NCCNC(=O)c1cccc(-n2ccc3cc(C(=O)N4CCC(F)(F)CC4)cnc32)c1 [MF-DH-467, N-(2-aminoethyl)-3-(5-(4,4-difluoropiperidine-1-carbonyl)-1H-pyrrolo[2,3-b]pyridin-1-yl)benzamide]"
–,< 100,110,"O=C(c1cnc2c(ccn2-c2ccc(-c3nn[nH]n3)cc2)c1)N1CCC(F)(F)CC1 [MF-DH-514, (1-(4-(2H-tetrazol-5-yl)phenyl)-1H-pyrrolo[2,3-b]pyridin-5-yl)(4,4-difluoropiperidin-1-yl)methanone]"
–,< 100,15,"O=C(Nc1ccn(C2CC2)n1)c1cccc(-n2ccc3cc(C(=O)N4CCC(F)(F)CC4)cnc32)c1 [MF-DH-499, N-(1-cyclopropyl-1H-pyrazol-3-yl)-3-(5-(4,4-difluoropiperidine-1-carbonyl)-1H-pyrrolo[2,3-b]pyridin-1-yl)benzamide]"
–,< 100,97,"O=C(O)c1cccc(-n2ccc3cc(C(=O)N4CCC(F)(F)CC4)cnc32)c1 [MF-DH-507, 3-(5-(4,4-difluoropiperidine-1-carbonyl)-1H-pyrrolo[2,3-b]pyridin-1-yl)benzoic acid]"
–,< 100,83,O=C(c1cnc2c(ccn2-c2cncc(N3CCOC3=O)c2)c1)N1CCC(F)(F)CC1 [MF-DH-472]
–,< 100,92,"O=C(c1cnc2c(ccn2-c2ccc(-c3n[nH]c(C4CC4)n3)nc2)c1)N1CCC(F)(F)CC1 [MF-DH-518, (1-(6-(5-cyclopropyl-1H-1,2,4-triazol-3-yl)pyridin-3-yl)-1H-pyrrolo[2,3-b]pyridin-5-yl)(4,4-difluoropiperidin-1-yl)methanone]"
–,< 100,60,"O=C(Nc1ccn(C2CC2)n1)c1cncc(-n2ccc3cc(C(=O)N4CCC(F)(F)CC4)cnc32)c1 [MF-DH-500, N-(1-cyclopropyl-1H-pyrazol-3-yl)-5-(5-(4,4-difluoropiperidine-1-carbonyl)-1H-pyrrolo[2,3-b]pyridin-1-yl)nicotinamide]"
–,< 100,89,"O=C(c1cnc2c(ccn2-c2ccc(-c3nnc(C(F)(F)F)[nH]3)nc2)c1)N1CCC(F)(F)CC1 [MF-DH-519, (4,4-difluoropiperidin-1-yl)(1-(6-(5-(trifluoromethyl)-4H-1,2,4-triazol-3-yl)pyridin-3-yl)-1H-pyrrolo[2,3-b]pyridin-5-yl)methanone]"
